Data on 33 compounds can be found in US10208068B2, “Macrocycles as factor XIa inhibitors” (BRISTOL-MYERS SQUIBB COMPANY, priority 2011, dated 2019).

Where a name gives a salt, the structure may show the parent alone.

As usually defined, the Ki is a dissociation constant, usually derived from enzyme kinetics or from competition with a known ligand.

For the experiment, the target named is human Factor XIa (Homo sapiens (Human), UniProt P03951). Kind of experiment: Factor XIa enzyme inhibition assay (chromogenic substrate S-2366). It is filed as biochemical. The conditions noted are these: purified human Factor XIa 25-200 pM, substrate S-2366, 50 mM HEPES pH 7.4.
Sequence of human Factor XIa (P03951 388-625): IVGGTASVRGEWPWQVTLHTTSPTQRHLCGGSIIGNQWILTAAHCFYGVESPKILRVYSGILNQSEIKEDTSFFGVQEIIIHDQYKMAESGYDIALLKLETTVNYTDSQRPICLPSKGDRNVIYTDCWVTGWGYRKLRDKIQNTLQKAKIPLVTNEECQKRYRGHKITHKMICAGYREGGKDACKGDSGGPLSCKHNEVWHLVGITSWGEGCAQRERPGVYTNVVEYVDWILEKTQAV
Sequence of human Factor XIa (P03951 19-387 partner): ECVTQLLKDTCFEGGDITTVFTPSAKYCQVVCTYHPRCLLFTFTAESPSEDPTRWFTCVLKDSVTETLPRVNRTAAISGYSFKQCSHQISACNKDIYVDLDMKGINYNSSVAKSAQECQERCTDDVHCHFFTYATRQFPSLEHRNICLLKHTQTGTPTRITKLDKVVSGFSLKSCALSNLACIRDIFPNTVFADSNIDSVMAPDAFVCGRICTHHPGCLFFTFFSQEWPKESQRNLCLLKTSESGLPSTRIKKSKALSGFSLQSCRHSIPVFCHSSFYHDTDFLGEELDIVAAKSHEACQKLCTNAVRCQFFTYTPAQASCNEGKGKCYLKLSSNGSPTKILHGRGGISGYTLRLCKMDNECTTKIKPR
Compound `CCC1CCC[C@H](NC(=O)c2cn(-c3cccc(Cl)c3F)nn2)c2cc(ccn2)-c2ccc(NC(=O)OC)cc2NC1=O` (single isomer, unassigned) [Example 24, TFA salt] showed an inhibition constant Ki of less than 5 nM.
In the case of `COC(=O)Nc1ccc2c(c1)NC(=O)[C@H](C)C(O)CC[C@H](NC(=O)c1cnn(-c3cccc(Cl)c3F)c1C)c1cc-2ccn1` (single isomer, unassigned) [Example 177, TFA salt], the Ki was 54.9 nM. This lies in the double-digit nanomolar range.
In the case of `COC(=O)Nc1ccc2c(c1)C(=O)NC(C)CCC[C@H](NC(=O)c1cnn(-c3cccc(Cl)c3F)c1C)c1cc-2ccn1` (single isomer, unassigned) [Example 221], the inhibition constant (Ki) is 312 nM.
`COC(=O)Nc1ccc2c(c1)NC(=O)[C@H](C)CCC[C@H](NC(=O)c1cn(-c3cccc(Cl)c3F)nn1)c1cc-2ccn1` [Example 3] gave a Ki of less than 5 nM.
The result for `COC(=O)Nc1ccc2c(c1)NC(=O)[C@H](C)CCC[C@H](NC(=O)c1cnn(C3CCCNC3)c1)c1cc-2ccn1` (stereo partly drawn) [Example 11] reads 69.4 nM.
`COC(=O)Nc1ccc2c(c1)NC(=O)[C@H](C)CCC[C@H](NC(=O)c1nnn(-c3cccc(Cl)c3F)c1Cl)c1cc-2ccn1` [Example 15] came in with an inhibition constant (Ki) of less than 5 nM.
The compound `COC(=O)Nc1ccc2c(c1)NC(=O)[C@H](C)CCC[C@H](NC(=O)c1cn(-c3cccc(C)c3)cn1)c1cc-2ccn1` [Example 18] came in with an inhibitory constant (Ki) of 98.7 nM.
Next, `COC(=O)Nc1ccc2c(c1)NC(=O)CCCC[C@H](NC(=O)c1cnn(-c3cccc(Cl)c3F)c1)c1cc-2ccn1` [Example 21, Methyl N-[(14S)-14-[1-(3-chloro-2-fluorophenyl)-1H-pyrazole-4-amido]-9-oxo-8,16-diazatricyclo[13.3.1.0^2,7]nonadeca-1(19),2(7),3,5,15,17-hexaen-5-yl]carbamate, TFA salt]: 9.08 nM.
`CCOC(=O)C1CCCC[C@H](NC(=O)c2cnn(-c3cccc(Cl)c3F)c2)c2cc(ccn2)-c2ccc(NC(=O)OC)cc2N1` (stereo partly drawn) [Example 26, Ethyl (9R,14S)-14-[1-(3-chloro-2-fluorophenyl)-1H-pyrazole-4-amido]-5-[(methoxycarbonyl)amino]-8,16-diazatricyclo[13.3.1.0^2,7]nonadeca-1(19),2(7),3,5,15,17-hexaene-9-carboxylate, 2 TFA salt] registered a Ki of 178 nM.
Regarding `COC(=O)Nc1ccc2c(c1)NC(=O)CCCC[C@H](NC(=O)c1cnn(-c3cccc(Cl)c3F)c1)c1cc-2cnc1F` [Example 32, Methyl N-[(14S)-14-[1-(3-chloro-2-fluorophenyl)-1H-pyrazole-4-amido]-16-fluoro-9-oxo-8,17-diazatricyclo[13.3.1.0^2,7]nonadeca-1(19),2(7),3,5,15,17-hexaen-5-yl]carbamate, TFA salt], the inhibition constant Ki stood at 11.4 nM.
The result for `COC(=O)Nc1ccc2c(c1)NC(=O)[C@H](C)CCC[C@H](NC(=O)c1nnn(-c3cccc(Cl)c3F)c1C)c1nc-2c[nH]1` [Example 39] reads 10.8 nM; that for `COC(=O)Nc1ccc2c(c1)NC(=O)[C@H](C)CCC[C@H](NC(=O)c1cnn(-c3cccc(Cl)c3)c1C)c1nc-2c[nH]1` [Example 41], 12.8 nM; that for `COC(=O)Nc1ccc2c(c1)NC(=O)CCCC[C@H](NC(=O)c1cn(-c3cccc(Cl)c3)nn1)c1nc-2c[nH]1` [Example 52, Methyl N-[(14S)-14-[1-(3-chlorophenyl)-1H-1,2,3-triazole-4-amido]-9-oxo-8,16,18-triazatricyclo[13.2.1.0^2,7]octadeca-1(17),2,4,6,15(18)-pentaen-5-yl]carbamate], 217 nM.
With `COC(=O)Nc1ccc2c(c1)NC(=O)CC/C=C/C[C@H](NC(=O)c1c[nH]c(-c3c(F)ccc(Cl)c3F)n1)c1nc-2c[nH]1` [Example 58, Methyl ((12E,15S)-15-(((2-(3-chloro-2,6-difluorophenyl)-1H-imidazol-4-yl)carbonyl)amino)-9-oxo-8,17,19-triazatricyclo[14.2.1.0^2,7]nonadeca-1(18),2,4,6,12,16(19)-hexaen-5-yl)carbamate], the Ki was 935 nM.
Compound `COC(=O)Nc1ccc2c(c1)NC(=O)[C@H](C)CCC[C@H](NC(=O)c1cn(-c3c(F)ccc(Cl)c3F)cn1)c1cc-2ccn1` [Example 72] yielded a Ki of 10.4 nM.
Consider `COC(=O)Nc1ccc2c(c1)NC(=O)[C@H](C)CCC[C@H](NC(=O)c1cncc(-c3cccc(Cl)c3F)c1)c1cc-2ccn1` [Example 75], for which the Ki stood at 36.5 nM. Compared with the last compound, the Ki is about 3.5-fold higher.
As for `COC(=O)Nc1ccc2c(c1)NC(=O)CCCC(C)[C@H](NC(=O)c1nnn(-c3cccc(Cl)c3F)c1C)c1cc-2ccn1` (stereo partly drawn) [Example 88, Methyl N-[(14S)-14-[1-(3-chloro-2-fluorophenyl)-5-methyl-1H-1,2,3-triazole-4-amido]-13-methyl-9-oxo-8,16-diazatricyclo[13.3.1.0^2,7]nonadeca-1(19),2(7),3,5,15,17-hexaen-5-yl]carbamate], the inhibition constant (Ki) was determined as 52.6 nM.
`Cc1c(C(=O)N[C@H]2CCC[C@@H](C)C(=O)Nc3cc(NC(=O)C(F)(F)F)ccc3-c3ccnc2c3)nnn1-c1cccc(Cl)c1F` [Example 137, 1-(3-Chloro-2-fluorophenyl)-5-methyl-N-[(10R,14S)-10-methyl-9-oxo-5-(trifluoroacetamido)-8,16-diazatricyclo[13.3.1.0^2,7]nonadeca-1(19),2(7),3,5,15,17-hexaen-14-yl]-1H-1,2,3-triazole-4-carboxamide] yielded an inhibition constant Ki of 547 nM. Against the preceding compound, the Ki is about 10-fold higher.
With `Cc1c(C(=O)N[C@H]2CCC[C@@H](C)C(=O)Nc3cc(NC(=O)OCF)ccc3-c3ccnc2c3)nnn1-c1cccc(Cl)c1F` [Example 139, Fluoromethyl N-[(10R,14S)-14-[1-(3-chloro-2-fluorophenyl)-5-methyl-1H-1,2,3-triazole-4-amido]-10-methyl-9-oxo-8,16-diazatricyclo[13.3.1.0^2,7]nonadeca-1(19),2(7),3,5,15,17-hexaen-5-yl]carbamate], the Ki is 5.49 nM.
`Cc1c(C(=O)N[C@H]2CCC[C@@H](C)C(=O)Nc3cc(Nc4ccncn4)ccc3-c3ccnc2c3)nnn1-c1cccc(Cl)c1F` [Example 151] came in with a Ki of 17.3 nM.
The result for `CCOC(=O)CNc1ccc2c(c1)NC(=O)[C@H](C)CCC[C@H](NC(=O)c1nnn(-c3cccc(Cl)c3F)c1C)c1cc-2ccn1` [Example 156, Ethyl 2-{[(10R,14S)-14-[1-(3-chloro-2-fluorophenyl)-5-methyl-1H-1,2,3-triazole-4-amido]-10-methyl-9-oxo-8,16-diazatricyclo[13.3.1.0^2,7]nonadeca-1(19),2(7),3,5,15,17-hexaen-5-yl]amino}acetate] reads 16.8 nM; that for `Cc1c(C(=O)N[C@H]2CCC[C@@H](C)C(=O)Nc3cc(N)c(C(=O)O)cc3-c3ccnc2c3)nnn1-c1cccc(Cl)c1F` [Example 158, (10R,14S)-5-Amino-14-[1-(3-chloro-2-fluorophenyl)-5-methyl-1H-1,2,3-triazole-4-amido]-10-methyl-9-oxo-8,16-diazatricyclo[13.3.1.0^2,7]nonadeca-1(19),2(7),3,5,15,17-hexaene-4-carboxylic acid], less than 5 nM; that for `Cc1nnc(Nc2ccc3c(c2)NC(=O)[C@H](C)CCC[C@H](NC(=O)c2nnn(-c4cccc(Cl)c4F)c2C)c2cc-3ccn2)o1` [Example 159, 1-(3-Chloro-2-fluorophenyl)-5-methyl-N-[(10R,14S)-10-methyl-5-[(5-methyl-1,3,4-oxadiazol-2-yl)amino]-9-oxo-8,16-diazatricyclo[13.3.1.0^2,7]nonadeca-1(19),2(7),3,5,15,17-hexaen-14-yl]-1H-1,2,3-triazole-4-carboxamide], 9.94 nM.
`Cc1c(C(=O)N[C@H]2CCC[C@H](C)C(=O)Nc3cc(-c4ccn[nH]4)ccc3-c3ccnc2c3)nnn1-c1cccc(Cl)c1F` [Example 165, 1-(3-Chloro-2-fluorophenyl)-5-methyl-N-[(10S,14S)-10-methyl-9-oxo-5-(1H-pyrazol-5-yl)-8,16-diazatricyclo[13.3.1.0^2,7]nonadeca-1(19),2(7),3,5,15,17-hexaen-14-yl]-1H-1,2,3-triazole-4-carboxamide, TFA salt] returned a Ki of 5080 nM. This Ki is about 510-fold higher than that of the compound before.
`Cc1c(C(=O)N[C@H]2CCC[C@@H](C)C(=O)Nc3cc(C(N)=O)ccc3-c3ccnc2c3)cnn1-c1cccc(Cl)c1F` [Example 190, (10R,14S)-14-C-1-(3-Chloro-2-fluorophenyl)-5-methyl-1H-pyrazole-4-10-methyl-9-oxo-8,16-diazatricyclo[13.3.1.0^2,7]nonadeca-1(19),2(7),3,5,15,17-hexaene-5,14-diamido, TFA salt] returned a Ki of 6.65 nM. This Ki is about 760-fold lower than that of the compound before.
As to `Cc1c(C(=O)N[C@H]2CCCCC(=O)Nc3cc(C(=O)N(C)C)ccc3-c3ccnc2c3)cnn1-c1cccc(Cl)c1F` [Example 193, (14S)-14-C-1-(3-Chloro-2-fluorophenyl)-5-methyl-1H-pyrazole-4-5-N,5-N-dimethyl-9-oxo-8,16-diazatricyclo[13.3.1.0^2,7]nonadeca-1(19),2(7),3,5,15,17-hexaene-5,14-diamido, TFA salt], the affinity corresponds to a Ki of 2980 nM.
The compound `COC(=O)Nc1ccc2c(c1)NC(=O)[C@H](C)CCC[C@H](NC(=O)c1nnn(-c3c(F)ccc(Cl)c3F)c1C)c1nc-2c[nH]1` [Example 207] displayed a Ki of 153 nM. Against the preceding compound, the Ki is about 19-fold lower.
Turning to `COC(=O)Nc1ccc2c(c1)NC(=O)[C@H](C)CCC[C@H](NC(=O)c1cnn(-c3cccc(Cl)c3F)c1C)c1cc(OC)nc-2c1` [Example 227], the Ki is less than 5 nM.
On to `COC(=O)Nc1ccc2c(c1)NC(=O)[C@@H](C)CCC[C@@H](NC(=O)c1cnn(-c3cccc(Cl)c3F)c1C)c1cc-2ncc1F` [Example 232], for which the affinity, expressed as Ki, was 4290 nM.
`COC(=O)Nc1ccc2c(c1)NC(=O)CCCC[C@H](NC(=O)c1cnn(-c3cccc(Cl)c3F)c1C)c1cc-2ccn1` [Example 234] gave an inhibition constant (Ki) of less than 5 nM.
With `COC(=O)Nc1ccc2c(c1)NC(=O)[C@H](C)CCC[C@H](NC(=O)c1cnn(-c3cccc(Cl)c3F)c1C)c1cc-2cnn1` [Example 246], the Ki is less than 5 nM.
On to `COCCOC(=O)Nc1ccc2c(c1)NC(=O)[C@H](C)CCC[C@H](NC(=O)c1ncn(-c3cccc(Cl)c3F)c1C)c1cc-2ccn1` [Example 251], for which the inhibition constant Ki is less than 5 nM.
`COC(=O)Nc1ccc2c(c1)NC(=O)[C@H](C)CCC[C@H](NC(=O)c1ncn(-c3cccc(Cl)c3F)c1C)c1cc-2cc(=O)[nH]1` [Example 256] displayed an inhibitory constant (Ki) of less than 5 nM.
